Assay [1] deals with HCV NS3/4A protease complex, BMS strain (UniProt P27958, C1454S/C1711G, species not given/STRAIN_BMS). The assay can be described thus: Recombinant HCV NS3/4A protease complex FRET peptide assay (BMS strain). It is filed as biochemical, HCV genotype 1a. An excerpt: Recombinant HCV NS3/4A Protease Complex FRET Peptide Assay
The purpose of this in vitro assay was to measure the inhibition of HCV NS3 protease complexes, derived from the BMS, H77C or J416S strains, as described below, by compounds of the present invention.
Serum from an HCV-infected patient was obtained from Dr. T. Wright, San Francisco Hospital. An engineered full-length cDNA (compliment deoxyribonucleic acid) template of the HCV genome (BMS strain) was constructed from DNA fragments obtained by reverse transcription-PCR(RT-PCR) of serum RNA (ribonucleic acid) and using primers selected on the basis of homology between other genotype 1a strains.
The BMS, H77C and J4L6S strains were used for production of recombinant NS3/4A protease complexes. […] Briefly, a three-lysine solubilizing tail was added at the 3′-end of the NS4A coding region. […] Briefly, NS3/4A expression was induced with 0.5 mM Isopropyl β-D-1-thiogalactopyranoside (IPTG) for 22 hr at 20° C. […] The crude protein extract was loaded on a Nickel—Nitrilotriacetic acid (Ni-NTA) column pre-equilibrated with buffer B (25 mM HEPES, pH8.0, 20% glycerol, 500 mM NaCl, 0.5% Triton-X100, 15 mM imidazole, 5 mM βME). The sample was loaded at a flow rate of 1 mL/min. The column was washed with 15 column volumes of buffer C (same as buffer B except with 0.2% Triton-X100). The protein was eluted with 5 column volumes of buffer D (same as buffer C except with 200 mM Imidazole).
NS3/4A protease complex-containing fractions were pooled and loaded on a desalting column Superdex-S200 pre-equilibrated with buffer D (25 mM HEPES, pH7.5, 20% glycerol, 300 mM NaCl, 0.2% Triton-X100, 10 mM βME). Sample was loaded at a flow rate of 1 mL/min. NS3/4A protease complex-containing fractions were pooled and concentrated to approximately 0.5 mg/ml.
The enzyme was stored at −80° C., thawed on ice and diluted prior to use in assay buffer. […] The sequence of this peptide is loosely based on the NS4A/NS4B natural cleavage site except there is an ester linkage rather than an amide bond at the cleavage site. The peptide substrate was incubated with one of the three recombinant NS3/4A complexes, in the absence or presence of a compound of the present invention, and the formation of fluorescent reaction product was followed in real time using a Cytofluor Series 4000.
The reagents were as follow: HEPES and Glycerol (Ultrapure) were obtained from GIBCO-BRL. Dimethyl Sulfoxide (DMSO) was obtained from Sigma. β-Mercaptoethanol was obtained from Bio Rad.
Substrate: 2 μM final concentration (from a 2 mM stock solution in DMSO stored at −20° C.). HCV NS3/4A type 1a (1b), 2-3 nM final concentration (from a 5 μM stock solution in 25 mM HEPES, pH7.5, 20% glycerol, 300 mM NaCl, 0.2% Triton-X100, 10 mM βME).
The assay was performed in a 96-well polystyrene black plate from Falcon. Each well contained 25 μl NS3/4A protease complex in assay buffer, 50 μof a compound of the present invention in 10% DMSO/assay buffer and 25 μl substrate in assay buffer. A control (no compound) was also prepared on the same assay plate. The enzyme complex was mixed with compound or control solution for 1 min before initiating the enzymatic reaction by the addition of substrate. The assay plate was read immediately using the Cytofluor Series 4000 (Perspective Biosystems). The instrument was set to read an […] at 25° C. Reactions were generally followed for approximately 15 minutes.
The percent inhibition was calculated with the following equation: 100−[(δFinh/δFcon)×100] where δF is the change in fluorescence over the linear range of the curve.

The test system of assay [2] is HCV replicon in Huh7 cells. The assay can be described thus: HCV replicon cell-based assay. Further details: species or system HCV strain 1B. Conditions: Hepatitis C virus, Huh-7; HCV replicon, Huh7 cells; read-out: EC50 range. From the text:
HCV Replicon Cell-based Assay
This system enabled us to evaluate the effects of our HCV Protease compounds on HCV RNA replication. Briefly, using the HCV strain 1B sequence described in the Lohmann paper (Assession number:AJ238799), an HCV cDNA was generated encoding the 5′ internal ribosome entry site (IRES), the neomycin resistance gene, the EMCV (encephalomyocarditis virus)-IRES and the HCV nonstructural proteins, NS3-NS5B, and 3′ non-translated region (NTR). In vitro transcripts of the cDNA were transfected into the human hepatoma cell line, Huh7. […] Resulting cell lines were characterized for positive and negative strand RNA production and protein production over time.
Huh7 cells, constitutively expressing the HCV replicon, were grown in Dulbecco's Modified Eagle Media (DMEM) containing 10% Fetal calf serum (FCS) and 1 mg/ml G418 (Gibco-BRL). Cells were seeded the night before (1.5×10^4 cells/well) in 96-well tissue-culture sterile plates. Compound and no compound controls were prepared in DMEM containing 4% FCS, 1:100 Penicillin/Streptomysin, 1:100 L-glutamine and 5% DMSO in the dilution plate (0.5% DMSO final concentration in the assay). Compound/DMSO mixes were added to the cells and incubated for 4 days at 37° C. After 4 days, plates were rinsed thoroughly with Phosphate-Buffered Saline (PBS) (3 times 150 μl). The cells were lysed with 25 μl of a lysis assay reagent containing the FRET peptide (RET S1, as described for the in vitro enzyme assay). The lysis assay reagent was made from 5× cell Luciferase cell culture lysis reagent(Promega #E153A) diluted to 1× with distilled water, NaCl added to 150 mM final, the FRET peptide diluted to 10 μM final from a 2 mM stock in 100% DMSO. The plate was then placed into the Cytofluor 4000 instrument which had been set to 340 nm excitation/490 emission, automatic mode for 21 cycles and the plate read in a kinetic mode. EC50 determinations were carried out as described for the IC50 determinations.
Cells were lyzed using the Rneasy kit (Qiagen). […] All primers were designed with ABI Prism 7700 software and obtained from Biosearch Technologies, Novato, Calif. Samples containing known concentrations of HCV RNA transcript were run as standards. Using the following cycling protocol (50° C., 30 min; 95° C., 5 min; 40 cycles of 95° C., 15 sec, 60° C., 1 min), HCV RNA expression was quantitated as described in the Perkin Elmer manual using the ABI Prism 7700 Sequence Detector.

[3] abbreviates: NS3/4A BMS strain; read-out: IC50 range.
Where [4] appears, read: read-out: IC50 range; NS3/4A BMS strain.

Structures are written as SMILES. Where two headings read alike, the source gives them in different places.

For `C=C[C@@H]1C[C@]1(NC(=O)[C@@H]1C[C@@H](Oc2ccnc(-c3ccc(F)cc3)c2)CN1C(=O)[C@@H](NC(=O)OC1CCCC1)C(C)(C)C)C(=O)NS(=O)(=O)C1CC1` [Compound 427], in assay [1] (setting [3]), the 50% inhibitory concentration (IC50) was less than 100 nM. The EC50 in assay [2] was 100 to 1000 nM.

For the compound `C=C[C@@H]1C[C@]1(NC(=O)[C@@H]1C[C@@H](Oc2nccc3c(OC)cccc23)CN1C(=O)[C@@H](NC(=O)OC(C)(C)C)C(C)(C)C)C(=O)NS(=O)(=O)C1CC1` [Compound 253], in assay [1] (setting [3]), the half-maximal inhibitory concentration (IC50) is less than 100 nM. Moreover, in assay [2], the 50% effective concentration (EC50) was less than 100 nM.

Take `C=C[C@@H]1C[C@]1(NC(=O)[C@@H]1CC(Oc2nccc3cc(OC)ccc23)CN1C(=O)[C@@H](NC(=O)OC(C)(C)CC)C(C)(C)C)C(=O)NS(=O)(=O)C1CC1` (stereo partly drawn) [Compound 67]: the IC50 in assay [1] (setting [3]) is less than 100 nM. Moreover, the EC50 in assay [2] is less than 100 nM.

As for `C=C[C@@H]1C[C@]1(NC(=O)[C@@H]1C[C@@H](Oc2nc(Cl)cc3cc(OC)ccc23)CN1C(=O)[C@@H](NC(=O)OC(C)(C)C)C(C)(C)C)C(=O)NS(=O)(=O)C1CC1` [Compound 40], the IC50 in assay [1] (setting [3]) is less than 100 nM. Moreover, in assay [2], the EC50 lay in the range of 100 to 1000 nM.

With `C=C[C@@H]1C[C@]1(NC(=O)[C@@H]1C[C@@H](Oc2nc(-c3ccc(OC)cc3)cc3ccccc23)CN1C(=O)[C@@H](NC(=O)OC(C)(C)C)C(C)(C)C)C(=O)NS(=O)(=O)C1CC1` [Compound 26], the IC50 in assay [1] (setting [3]) is less than 100 nM. Also, the EC50 in assay [2] was less than 100 nM.

Consider `C=C[C@@H]1C[C@]1(NC(=O)[C@@H]1C[C@@H](Oc2nccc3ccccc23)CN1C(=O)[C@@H](NC(=O)Oc1ccc(OC)cc1)C(C)(C)C)C(=O)NS(=O)(=O)C1CC1` [Compound 123], for which the IC50 in assay [1] (setting [3]) is less than 100 nM. For the same compound, the concentration giving a half-maximal response (EC50) in assay [2] was 100 to 1000 nM.

As for `C=CC1C[C@]1(NC(=O)[C@@H]1C[C@@H](Oc2nccc3cc(C(C)(C)C)ccc23)CN1C(=O)[C@@H](NC(=O)OC(C)(C)C)C(C)(C)C)C(=O)NS(=O)(=O)C1CC1` (stereo partly drawn) [Compound 191, BOCNH-P3(L-tert-BuGly)-P2[(4R)-(6-tert-butyl isoquinolin-1-oxo)-S-proline]-P1(1R,2S Vinyl Acca)-CONHSO2-Cyclopropane], the concentration for half-maximal inhibition (IC50) in assay [1] (setting [3]) is less than 100 nM. For the same compound, in assay [2], the EC50 is 100 to 1000 nM.

With `C=C[C@@H]1C[C@]1(NC(=O)[C@@H]1C[C@@H](Oc2nccc3cc(OC)ccc23)CN1C(=O)[C@@H](NC(=O)OC1CCCC1)[C@H](C)OC)C(=O)NS(=O)(=O)C1CC1` [Compound 104], the IC50 in assay [1] (setting [4]) is less than 100 nM. Further, the concentration giving a half-maximal response (EC50) in assay [2] is less than 100 nM.

For `C=C[C@@H]1C[C@]1(NC(=O)[C@@H]1C[C@@H](Oc2ncc(OC)c3cc(OC)ccc23)CN1C(=O)[C@@H](NC(=O)OC(C)(C)C)C(C)(C)C)C(=O)NS(=O)(=O)C1CC1` [Compound 279], the half-maximal inhibitory concentration (IC50) in assay [1] (setting [3]) is less than 100 nM. The EC50 in assay [2] was less than 100 nM.

On to `C=C[C@@H]1C[C@]1(NC(=O)C1CC(Oc2nc(-c3ccccc3)nc3ccccc23)CN1C(=O)[C@@H](NC(=O)OC(C)(C)C)C(C)(C)C)C(=O)NS(=O)(=O)C1CC1` (stereo partly drawn) [Compound 47], for which the IC50 in assay [1] (setting [3]) is less than 100 nM. For the same compound, the half-maximal effective concentration (EC50) in assay [2] lay in the range of 100 to 1000 nM.

Take `C=C[C@@H]1C[C@]1(NC(=O)[C@@H]1C[C@@H](Oc2nccc3cc(OC)ccc23)CN1C(=O)[C@@H](NC(=O)OC(C)(C)C)[C@H](C)OCC)C(=O)NS(=O)(=O)C1CC1` [Compound 96]: the IC50 in assay [1] (setting [4]) was less than 100 nM. For the same compound, the 50% effective concentration (EC50) in assay [2] is less than 100 nM.

Take `C=CC1CC1(NC(=O)[C@@H]1C[C@@H](Oc2cc(C(F)(F)F)nc3ccc(F)cc23)CN1C(=O)[C@@H](NC(=O)OC(C)(C)C)C(C)(C)C)C(=O)NS(=O)(=O)C1CC1` (stereo partly drawn) [Compound 450]: the IC50 in assay [1] (setting [3]) was less than 100 nM. Also, the EC50 in assay [2] was in the range of 100 to 1000 nM.

`C=C[C@@H]1C[C@]1(NC(=O)[C@@H]1C[C@@H](Oc2nccc3cc(OC)ccc23)CN1C(=O)[C@H](CC(=O)OCc1ccccc1)NC(=O)OC(C)(C)C)C(=O)NS(=O)(=O)C1CC1` [Compound 137]: the IC50 in assay [1] (setting [3]) was less than 100 nM. In addition, the EC50 in assay [2] is less than 100 nM.

With `C=C[C@@H]1C[C@]1(NC(=O)[C@@H]1C[C@@H](Oc2cc(-c3ccc(OC)cc3)nc3c(C)noc23)CN1C(=O)[C@@H](NC(=O)OC(C)(C)C)C(C)(C)C)C(=O)NS(=O)(=O)C1CC1` [Compound 3], the IC50 in assay [1] (setting [3]) was less than 100 nM. The EC50 in assay [2] is less than 100 nM.

As for `C=CC1C[C@]1(NC(=O)[C@@H]1C[C@@H](Oc2nc3c(c4ccccc24)CCC3)CN1C(=O)[C@@H](NC(=O)OC(C)(C)C)C(C)(C)C)C(=O)NS(=O)(=O)C1CC1` (stereo partly drawn) [Compound 215, BOCNH-P3(L-t-BuGly)-P2[(1R)-(2,3-dihydro-1 H-4aza -cyclopenta[α]naphthalen-5-yloxy)-S-proline]-P1(1R,2S VinylAcca)-CONHSO2Cyclopropane], the IC50 in assay [1] (setting [3]) is less than 100 nM. Besides, the EC50 in assay [2] was less than 100 nM.

As to `CC[C@@H]1C[C@]1(NC(=O)[C@@H]1C[C@@H](Oc2nccc3c4c(ccc23)OCCO4)CN1C(=O)[C@@H](NC(=O)OC(C)(C)C)C(C)(C)C)C(=O)NS(=O)(=O)C1CC1` [Compound 290], the half-inhibitory concentration (IC50) in assay [1] (setting [3]) was less than 100 nM. The EC50 in assay [2] was less than 100 nM.

On to `C=C[C@@H]1C[C@]1(NC(=O)[C@@H]1C[C@@H](Oc2nccc3cccc(OC)c23)CN1C(=O)[C@@H](NC(=O)OC(C)(C)C)C(C)(C)C)C(=O)NS(=O)(=O)C1CC1` [Compound 264], for which, in assay [1] (setting [3]), the concentration for half-maximal inhibition (IC50) fell in the range of 100 to 1000 nM. Besides, the concentration for a half-maximal effect (EC50) in assay [2] was in the range of 1000 to 10000 nM.

As for `C=CC1C[C@]1(NC(=O)[C@@H]1C[C@@H](Oc2noc3ccccc23)CN1C(=O)[C@@H](NC(=O)OC(C)(C)C)C(C)(C)C)C(=O)NS(=O)(=O)C1CC1` (stereo partly drawn) [Compound 334], the IC50 in assay [1] (setting [3]) was 100 to 1000 nM. Moreover, the EC50 in assay [2] fell in the range of 100 to 1000 nM.

Usually IC50 stands for the midpoint of a concentration-inhibition curve. In general, EC50 refers to the concentration that produces a half-maximal response.

These data come from patent publication US7915291B2, “Hepatitis C virus inhibitors” (Bristol-Myers Squibb Company, priority 2002, dated 2011).
